# Results from ChEMBL document CHEMBL1201862, “PubChem BioAssay data set” (2004).
#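 Grown in 96-well plates, cells were treated for 48 hours with each compound at five concentrations. Insufficient inhibition: endpoint recorded as highest concentration tested. GI50 is the concentration that inhibits growth by half.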 Active and inactive are the calls of the source. No stated cut-off is given here; in the data, active = GI50 up to about 1.1 µM and inactive = higher.
# Columns and labels:
# Test in all cases: NCI anticancer screen, dose series, 48 h
# U-251 = test system: U-251
# OVCAR-4 = test system: OVCAR-4
# A549 = test system: A549
# SNB-19 = test system: SNB-19
# HOP-18 = test system: HOP-18
# LOX IMVI = test system: LOX IMVI
# MOLT-4 = test system: MOLT-4
# DMS-273 = test system: DMS-273
# RXF 393 = test system: RXF 393
# NCI-H226 = test system: NCI-H226
# SF-539 = test system: SF-539
# OVCAR-8 = test system: OVCAR-8
# A498 = test system: A498
# HCT-15 = test system: HCT-15
# SNB-78 = test system: SNB-78
# DMS-114 = test system: DMS-114
# CAKI-1 = test system: CAKI-1
# SK-MEL-5 = test system: SK-MEL-5
# HL-60 = test system: HL-60
# NCI-H460 = test system: NCI-H460
# HCC 2998 = test system: HCC 2998
# UACC-257 = test system: UACC-257
# NCI-H522 = test system: NCI-H522
# EKVX = test system: EKVX
# OVCAR-5 = test system: OVCAR-5
# OVCAR-3 = test system: OVCAR-3
# Malme-3M = test system: Malme-3M
# SN12C = test system: SN12C
# M19-MEL = test system: M19-MEL
# UO-31 = test system: UO-31
# COLO 205 = test system: COLO 205
# MCF7 = test system: MCF7
# SK-OV-3 = test system: SK-OV-3
# CCRF-CEM = test system: CCRF-CEM
# NCI/ADR-RES = test system: NCI/ADR-RES
# UACC-62 = test system: UACC-62
# K562 = test system: K562
# SK-MEL-28 = test system: SK-MEL-28
# SNB-75 = test system: SNB-75
# SF-268 = test system: SF-268
# KM-20L2 = test system: KM-20L2
# IGROV-1 = test system: IGROV-1
# SF-295 = test system: SF-295
# HOP-62 = test system: HOP-62
# HT-29 = test system: HT-29
# NCI-H23 = test system: NCI-H23
# HOP-92 = test system: HOP-92
# HCT-116 = test system: HCT-116
# RPMI-8226 = test system: RPMI-8226
# SK-MEL-2 = test system: SK-MEL-2
# SW-620 = test system: SW-620
# KM12 = test system: KM12
# M14 = test system: M14
# 786-0 = test system: 786-0
# SR = test system: SR
# DLD-1 = test system: DLD-1
# TK-10 = test system: TK-10
# LXFL 529 = test system: LXFL 529
# ACHN = test system: ACHN
smiles,measurement,setting,value
O=C(O)c1ccc(Nc2c3ccccc3nc3ccccc23)cc1,GI50,U-251,51.6 µM (inactive)
same,GI50,OVCAR-4,> 100 µM (inactive)
same,GI50,A549,41.2 µM (inactive)
same,GI50,SNB-19,> 86.7 µM (inactive)
same,GI50,HOP-18,> 100 µM (inactive)
same,GI50,LOX IMVI,60.8 µM (inactive)
same,GI50,MOLT-4,23.1 µM (inactive)
same,GI50,DMS-273,38.9 µM (inactive)
same,GI50,RXF 393,> 100 µM (inactive)
same,GI50,NCI-H226,31.8 µM (inactive)
same,GI50,SF-539,> 78.2 µM (inactive)
same,GI50,OVCAR-8,64 µM (inactive)
same,GI50,A498,52.6 µM (inactive)
same,GI50,HCT-15,64.4 µM
same,GI50,SNB-78,30.8 µM (inactive)
same,GI50,DMS-114,> 100 µM (inactive)
same,GI50,CAKI-1,49.9 µM (inactive)
same,GI50,SK-MEL-5,> 68.1 µM (inactive)
same,GI50,HL-60,47.9 µM (inactive)
same,GI50,NCI-H460,22.6 µM (inactive)
same,GI50,HCC 2998,> 100 µM (inactive)
same,GI50,UACC-257,> 100 µM (inactive)
same,GI50,NCI-H522,> 75.7 µM (inactive)
same,GI50,EKVX,> 100 µM (inactive)
same,GI50,OVCAR-5,> 100 µM (inactive)
same,GI50,OVCAR-3,> 100 µM (inactive)
same,GI50,Malme-3M,43.3 µM (inactive)
same,GI50,SN12C,64.7 µM (inactive)
same,GI50,M19-MEL,66.7 µM (inactive)
same,GI50,UO-31,54.6 µM (inactive)
same,GI50,COLO 205,> 100 µM (inactive)
same,GI50,MCF7,71.1 µM (inactive)
same,GI50,SK-OV-3,> 100 µM (inactive)
same,GI50,CCRF-CEM,26.9 µM (inactive)
same,GI50,NCI/ADR-RES,> 76 µM (inactive)
same,GI50,UACC-62,47.4 µM (inactive)
same,GI50,K562,76.2 µM (inactive)
same,GI50,SK-MEL-28,> 100 µM (inactive)
same,GI50,SNB-75,> 83.9 µM (inactive)
same,GI50,SF-268,67.9 µM (inactive)
same,GI50,KM-20L2,> 100 µM (inactive)
same,GI50,IGROV-1,> 100 µM (inactive)
same,GI50,SF-295,45.5 µM (inactive)
same,GI50,HOP-62,> 67.3 µM (inactive)
same,GI50,HT-29,97.9 µM (inactive)
same,GI50,NCI-H23,> 72.3 µM (inactive)
same,GI50,HOP-92,> 65 µM (inactive)
same,GI50,HCT-116,45 µM (inactive)
same,GI50,RPMI-8226,54.8 µM (inactive)
same,GI50,SK-MEL-2,> 100 µM (inactive)
same,GI50,SW-620,59.7 µM (inactive)
same,GI50,KM12,> 100 µM (inactive)
COC1CC(Br)(C#N)C1 (configuration not stated),GI50,U-251,> 100 µM (inactive)
same,GI50,OVCAR-4,> 100 µM (inactive)
same,GI50,A549,> 100 µM (inactive)
same,GI50,HOP-18,> 100 µM (inactive)
same,GI50,MOLT-4,52 µM (inactive)
same,GI50,RXF 393,> 100 µM (inactive)
same,GI50,SF-539,> 100 µM (inactive)
same,GI50,OVCAR-8,> 100 µM (inactive)
same,GI50,HCT-15,> 100 µM
same,GI50,SNB-78,> 100 µM (inactive)
same,GI50,M14,> 100 µM (inactive)
same,GI50,DMS-114,> 100 µM (inactive)
same,GI50,CAKI-1,> 100 µM (inactive)
same,GI50,SK-MEL-5,> 100 µM (inactive)
same,GI50,HL-60,> 100 µM (inactive)
same,GI50,HCC 2998,> 100 µM (inactive)
same,GI50,EKVX,> 100 µM (inactive)
same,GI50,OVCAR-5,> 100 µM (inactive)
same,GI50,OVCAR-3,> 100 µM (inactive)
same,GI50,Malme-3M,> 100 µM (inactive)
same,GI50,M19-MEL,> 100 µM (inactive)
same,GI50,786-0,> 100 µM (inactive)
same,GI50,UO-31,> 100 µM (inactive)
same,GI50,COLO 205,> 100 µM (inactive)
same,GI50,SK-OV-3,> 100 µM (inactive)
same,GI50,SR,> 100 µM (inactive)
same,GI50,UACC-62,> 100 µM (inactive)
same,GI50,K562,> 100 µM (inactive)
same,GI50,SK-MEL-28,> 100 µM (inactive)
same,GI50,SF-268,> 100 µM (inactive)
same,GI50,KM-20L2,> 100 µM (inactive)
same,GI50,IGROV-1,> 100 µM (inactive)
same,GI50,SF-295,> 100 µM (inactive)
same,GI50,HOP-62,> 100 µM (inactive)
same,GI50,DLD-1,> 100 µM (inactive)
same,GI50,HT-29,> 100 µM (inactive)
same,GI50,NCI-H23,> 100 µM (inactive)
same,GI50,HOP-92,> 100 µM (inactive)
same,GI50,HCT-116,> 100 µM (inactive)
same,GI50,RPMI-8226,> 100 µM (inactive)
same,GI50,SK-MEL-2,> 100 µM (inactive)
same,GI50,TK-10,> 100 µM (inactive)
same,GI50,KM12,> 100 µM (inactive)
CC(=O)SCCC1c2[nH]c3ccccc3c2CCN1O (configuration not stated),GI50,U-251,> 100 µM (inactive)
same,GI50,OVCAR-4,> 100 µM (inactive)
same,GI50,A549,> 100 µM (inactive)
same,GI50,SNB-19,> 100 µM (inactive)
same,GI50,HOP-18,> 100 µM (inactive)
same,GI50,LOX IMVI,49 µM (inactive)
same,GI50,LXFL 529,56.4 µM (inactive)
same,GI50,MOLT-4,40.6 µM (inactive)
same,GI50,DMS-273,86.1 µM (inactive)
same,GI50,RXF 393,78 µM (inactive)
same,GI50,SF-539,> 100 µM (inactive)
same,GI50,OVCAR-8,> 100 µM (inactive)
same,GI50,HCT-15,71.6 µM
same,GI50,M14,> 100 µM (inactive)
same,GI50,DMS-114,74.5 µM (inactive)
same,GI50,CAKI-1,59.7 µM (inactive)
same,GI50,SK-MEL-5,83 µM (inactive)
same,GI50,HL-60,36.6 µM (inactive)
same,GI50,ACHN,> 100 µM (inactive)
same,GI50,NCI-H460,82.8 µM (inactive)
same,GI50,HCC 2998,85.1 µM (inactive)
same,GI50,UACC-257,> 100 µM (inactive)
same,GI50,NCI-H522,23.9 µM (inactive)
same,GI50,EKVX,> 100 µM (inactive)
same,GI50,OVCAR-5,71.4 µM (inactive)
same,GI50,OVCAR-3,> 100 µM (inactive)
same,GI50,Malme-3M,> 100 µM (inactive)
same,GI50,SN12C,> 100 µM (inactive)
same,GI50,M19-MEL,> 100 µM (inactive)
same,GI50,786-0,> 100 µM (inactive)
same,GI50,UO-31,> 100 µM (inactive)
same,GI50,COLO 205,> 100 µM (inactive)
same,GI50,SK-OV-3,> 100 µM (inactive)
same,GI50,CCRF-CEM,31.8 µM (inactive)
same,GI50,UACC-62,> 100 µM (inactive)
same,GI50,K562,32.4 µM (inactive)
same,GI50,SK-MEL-28,> 100 µM (inactive)
same,GI50,SNB-75,18.7 µM (inactive)
same,GI50,SF-268,> 100 µM (inactive)
same,GI50,KM-20L2,> 100 µM (inactive)
same,GI50,IGROV-1,> 100 µM (inactive)
same,GI50,SF-295,> 100 µM (inactive)
same,GI50,HOP-62,> 100 µM (inactive)
same,GI50,DLD-1,> 100 µM (inactive)
same,GI50,HT-29,> 100 µM (inactive)
same,GI50,NCI-H23,> 100 µM (inactive)
same,GI50,HOP-92,26.7 µM (inactive)
same,GI50,RPMI-8226,35.2 µM (inactive)
same,GI50,SK-MEL-2,> 100 µM (inactive)
same,GI50,SW-620,28.1 µM (inactive)
same,GI50,TK-10,> 100 µM (inactive)
same,GI50,KM12,68.9 µM (inactive)
